Six compounds from patent US20260356830A1, “COMPOUNDS FOR MODULATING RET PROTEIN” (Bristol-Myers Squibb Company, priority 2022, published 2026) can be followed below.

The test addresses T1, CCDC6-RET (Homo sapiens, UniProt P07949+Q16204+Q96SW2).
T1 construct: CCDC6 (natural N-terminal fusion partner, UniProt Q16204); endogenous in cells; host or cells: TPC-1 (parental, papillary thyroid carcinoma)
Description: Cellular RET degradation, AlphaLISA, TPC-1 cell line. The test is classed as cell-based. To be noted: for Dmax: TPC1, human, 24 h, read-out: Cell Density TPC-1/CCDC6-RET Ymax %; for DC50: read-out: Cell Density TPC-1/CCDC6-RET DC50, half-maximal degradation concentration, TPC-1 (CCDC6-RET), 24 hrs. An outline of the steps:
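Luminescent AlphaLISA read of RET abundance in lysates after 24 h compound exposure (37 °C, 2% FBS DMEM) of CCDC6-RET-bearing TPC-1 cells. % degradation relative to DMSO (high) and media (low) controls, fitted to 4-parameter logistic curve for DC50 and Ymax.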
On the technique in general: Alpha assays give light when donor and acceptor beads are brought close together.

The structures appear in SMILES notation.

T1 sequence (Q16204+P07949 fused): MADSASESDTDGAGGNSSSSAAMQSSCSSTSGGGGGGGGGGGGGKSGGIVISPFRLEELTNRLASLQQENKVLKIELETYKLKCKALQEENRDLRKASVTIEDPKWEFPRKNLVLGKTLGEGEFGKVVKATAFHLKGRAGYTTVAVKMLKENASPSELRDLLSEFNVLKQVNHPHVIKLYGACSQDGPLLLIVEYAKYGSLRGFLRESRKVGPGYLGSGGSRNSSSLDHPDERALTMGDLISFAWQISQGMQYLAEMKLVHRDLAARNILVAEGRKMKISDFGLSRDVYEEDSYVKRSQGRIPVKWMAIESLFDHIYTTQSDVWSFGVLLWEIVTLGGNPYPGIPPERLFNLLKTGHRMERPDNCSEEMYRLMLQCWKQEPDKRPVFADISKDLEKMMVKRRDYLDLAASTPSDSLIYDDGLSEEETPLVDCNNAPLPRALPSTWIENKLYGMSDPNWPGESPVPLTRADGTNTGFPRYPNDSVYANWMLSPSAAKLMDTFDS
T1 sequence (Q96SW2 whole entry, the tested form may be a part): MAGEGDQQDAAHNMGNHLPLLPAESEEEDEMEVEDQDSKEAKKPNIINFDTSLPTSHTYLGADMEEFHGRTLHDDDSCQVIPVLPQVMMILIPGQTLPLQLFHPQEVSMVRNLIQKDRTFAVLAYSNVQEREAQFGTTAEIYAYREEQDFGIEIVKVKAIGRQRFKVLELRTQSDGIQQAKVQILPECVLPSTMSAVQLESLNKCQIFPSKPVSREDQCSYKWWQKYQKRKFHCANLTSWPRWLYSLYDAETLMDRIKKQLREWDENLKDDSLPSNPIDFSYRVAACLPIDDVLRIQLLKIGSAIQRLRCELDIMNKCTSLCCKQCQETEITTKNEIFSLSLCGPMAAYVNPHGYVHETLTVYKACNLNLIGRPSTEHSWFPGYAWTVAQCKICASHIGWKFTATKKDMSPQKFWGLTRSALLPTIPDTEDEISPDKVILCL
T1 sequence (Q16531 whole entry partner, the tested form may be a part): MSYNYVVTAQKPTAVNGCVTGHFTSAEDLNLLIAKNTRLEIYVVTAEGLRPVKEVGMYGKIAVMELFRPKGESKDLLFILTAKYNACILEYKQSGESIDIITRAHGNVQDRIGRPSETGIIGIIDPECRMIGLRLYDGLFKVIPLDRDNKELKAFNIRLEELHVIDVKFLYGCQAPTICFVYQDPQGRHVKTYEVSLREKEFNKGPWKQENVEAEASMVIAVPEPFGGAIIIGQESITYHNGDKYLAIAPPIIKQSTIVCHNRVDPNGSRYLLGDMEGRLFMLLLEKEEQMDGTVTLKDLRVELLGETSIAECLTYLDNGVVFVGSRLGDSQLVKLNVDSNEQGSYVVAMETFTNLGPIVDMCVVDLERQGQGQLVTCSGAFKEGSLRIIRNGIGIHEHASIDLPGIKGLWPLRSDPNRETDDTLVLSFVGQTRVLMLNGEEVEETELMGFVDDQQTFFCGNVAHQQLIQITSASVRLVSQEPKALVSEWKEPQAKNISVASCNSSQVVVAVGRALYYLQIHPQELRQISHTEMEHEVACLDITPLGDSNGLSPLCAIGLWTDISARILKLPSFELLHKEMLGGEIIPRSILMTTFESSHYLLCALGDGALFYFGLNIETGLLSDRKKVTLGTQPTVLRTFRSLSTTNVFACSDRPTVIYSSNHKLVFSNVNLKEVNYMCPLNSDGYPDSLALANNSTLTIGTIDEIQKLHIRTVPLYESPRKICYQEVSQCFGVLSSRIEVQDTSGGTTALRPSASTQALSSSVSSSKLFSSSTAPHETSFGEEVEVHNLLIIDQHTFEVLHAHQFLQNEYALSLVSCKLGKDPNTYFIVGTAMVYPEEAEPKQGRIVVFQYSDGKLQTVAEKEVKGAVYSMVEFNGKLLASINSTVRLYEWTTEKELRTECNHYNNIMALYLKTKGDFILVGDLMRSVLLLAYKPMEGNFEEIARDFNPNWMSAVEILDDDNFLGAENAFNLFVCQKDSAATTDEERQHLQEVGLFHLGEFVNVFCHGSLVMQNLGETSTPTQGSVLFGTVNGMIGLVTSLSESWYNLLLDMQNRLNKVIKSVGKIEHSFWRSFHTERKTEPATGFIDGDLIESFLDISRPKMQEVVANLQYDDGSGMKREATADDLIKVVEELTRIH

As for `CCOc1cc(-c2ccc(N3CCC(CN4CCN(C(=O)CCCCCCN5CCN(c6ccc7c(c6)C(=O)N(C6CCC(=O)NC6=O)C7)CC5)CC4)(NC(=O)c4cc(F)ccc4F)CC3)nc2)c2c(C#N)cnn2c1` (stereo not drawn) [Example 16, N-[1-(5-{3-cyano-6-ethoxypyrazolo[1,5-a]pyridin-4-yl}pyridin-2-yl)-4-{[4-(7-{4-[2-(2,6-dioxopiperidin-3-yl)-3-oxo-2,3-dihydro-1H-isoindol-5-yl]piperazin-1-yl}heptanoyl)piperazin-1-yl]methyl}piperidin-4-yl]-2,5-difluorobenzamide], the Dmax is over 90% and the DC50 fell in the range of 2 to 10 nM.

In the case of `CCOc1cc(-c2ccc(N3CCC(C)(CN4CCN(C(=O)CCN5CCC(c6ccc7c(c6)CN(C6CCC(=O)NC6=O)C7=O)CC5)CC4)CC3)nc2)c2c(C#N)cnn2c1` (stereo not drawn) [Example 129, 4-[6-(4-{[4-(3-{4-[2-(2,6-dioxopiperidin-3-yl)-1-oxo-2,3-dihydro-1H-isoindol-5-yl]piperidin-1-yl}propanoyl)piperazin-1-yl]methyl}-4-methylpiperidin-1-yl)pyridin-3-yl]-6-ethoxypyrazolo[1,5-a]pyridine-3-carbonitrile], the Dmax is 60 to 90% and the DC50 was 100 to 2000 nM.

In the case of `CCOc1cc(-c2ccc(N3CCC(CN4CCC5(CC4)CCN(C(=O)c4ccc6c(c4)C(=O)N(C4CCC(=O)NC4=O)C6)CC5)(NC(=O)c4cc(F)ccc4F)CC3)nc2)c2c(C#N)cnn2c1` (stereo not drawn) [Example 96, N-[1-(5-{3-cyano-6-ethoxypyrazolo[1,5-a]pyridin-4-yl}pyridin-2-yl)-4-({9-[2-(2,6-dioxopiperidin-3-yl)-3-oxo-2,3-dihydro-1H-isoindole-5-carbonyl]-3,9-diazaspiro[5.5]undecan-3-yl}methyl)piperidin-4-yl]-2,5-difluorobenzamide], the Dmax is 60 to 90% and the DC50 was in the range of 10 to 100 nM.

On to `CCOc1cc(-c2ccc(N3CCC(CN4CCN(C5CN(C(=O)Cc6ccc7c(c6)CN(C6CCC(=O)NC6=O)C7=O)C5)CC4)(NC(=O)c4cc(F)ccc4F)CC3)nc2)c2c(C#N)cnn2c1` (stereo not drawn) [Example 62, N-[1-(5-{3-cyano-6-ethoxypyrazolo[1,5-a]pyridin-4-yl}pyridin-2-yl)-4-{[4-(1-{2-[2-(2,6-dioxopiperidin-3-yl)-1-oxo-2,3-dihydro-1H-isoindol-5-yl]acetyl}azetidin-3-yl)piperazin-1-yl]methyl}piperidin-4-yl]-2,5-difluorobenzamide], for which the Dmax lay in the range of 60 to 90% and the DC50 lay in the range of 2 to 10 nM.

On to `CCOc1cc(-c2ccc(N3CCC(CN4CCN(C(=O)CCOCCN5CCN(c6ccc7c(c6)CN(C6CCC(=O)NC6=O)C7=O)CC5)CC4)(NC(=O)c4cc(F)ccc4F)CC3)nc2)c2c(C#N)cnn2c1` (stereo not drawn) [Example 104, N-[1-(5-{3-cyano-6-ethoxypyrazolo[1,5-a]pyridin-4-yl}pyridin-2-yl)-4-({4-[3-(2-{4-[2-(2,6-dioxopiperidin-3-yl)-1-oxo-2,3-dihydro-1H-isoindol-5-yl]piperazin-1-yl}ethoxy)propanoyl]piperazin-1-yl}methyl)piperidin-4-yl]-2,5-difluorobenzamide], for which the Dmax lay within 60 to 90% and the DC50 was in the range of 2 to 10 nM.

Turning to `CCOc1cc(-c2ccc(N3CCC(CN4CCN(C(=O)C5CC6(C5)CC(C(=O)N5CCN(c7ccc8c(c7)CN(C7CCC(=O)NC7=O)C8=O)CC5)C6)CC4)(NC(=O)c4cc(F)ccc4F)CC3)nc2)c2c(C#N)cnn2c1` (stereo not drawn) [Example 85, N-[1-(5-{3-cyano-6-ethoxypyrazolo[1,5-a]pyridin-4-yl}pyridin-2-yl)-4-{[4-(6-{4-[2-(2,6-dioxopiperidin-3-yl)-1-oxo-2,3-dihydro-1H-isoindol-5-yl]piperazine-1-carbonyl}spiro[3.3]heptane-2-carbonyl)piperazin-1-yl]methyl}piperidin-4-yl]-2,5-difluorobenzamide], the Dmax was 60 to 90% and the DC50 was under 2 nM.
